Laboratory results taken from patent US6538035B2, “Use of tolterodine to treat asthma” (Pharmacia & Upjohn Company, priority 2000, dated 2003).

Key:
[1] = system: asthma; assay: treatment of a patient with asthma by inhalation, morning peak flow; assay type: in vivo, human; details: person
Protocol: A person with a history of asthma with a morning peak flow of less than 2 l/sec is treated with 2-(diisopropylamino)ethyl-1-phenylcyclopentanecarboxylate powder 0.1 mg every 8 hr continuously. Treatment improves the peak flow to 4-5 l/sec.
A person with a history of severe asthma with a morning peak flow of 5 l/sec is treated with tolterodine powder 6 mg once a day continuously. After a week of treatment the peak flow improves to 9 l/sec.
A person with a history of severe asthma with a morning peak flow of less than 3 l/sec is treated with tolterodine aerosol 2 mg three times daily continuously. After a week of treatment the peak flow improves to 6 l/sec.

[2] = system: chronic COPD; assay: treatment of a patient with chronic COPD by inhalation; assay type: in vivo, human; details: person
Protocol: A person with a history of chronic COPD with FEV1 of 1.5 liters is treated with tolterodine aerosol 1 mg every 12 hr continuously for dyspnea. After two weeks of therapy dyspnea tolerance is improved.
A person with a history of chronic COPD with FEV1/FVC of 60% liters is treated with hydroxytolterodine aerosol 2 mg every 8 hr continuously for dyspnea. After a week of treatment the FEV1/FVC ratio improves to about 65%.

CC(C)N(CCOC(=O)C1(c2ccccc2)CCCC1)C(C)C [2-(diisopropylamino)ethyl-1-phenylcyclopentanecarboxylate]
peak flow ([1]; asthma, baseline morning peak flow less than 2 l/sec, powder 0.1 mg every 8 hr continuously): 4 to 5 L/s

CC(C)N(CC[C@H](c1ccccc1)c1cc(CO)ccc1O)C(C)C [hydroxytolterodine, 2-[(1R)-3-(diisopropylamino)-1-phenylpropyl]-4-(hydroxymethyl)phenol]
FEV1/FVC ratio ([2]; baseline FEV1/FVC of 60%, aerosol 2 mg every 8 hr continuously, after a week of treatment): about 65%

Cc1ccc(O)c([C@H](CCN(C(C)C)C(C)C)c2ccccc2)c1 [tolterodine, 2-[(1R)-3-(diisopropylamino)-1-phenylpropyl]-4-methylphenol]
dyspnea tolerance ([2]; FEV1 of 1.5 liters, aerosol 1 mg every 12 hr continuously, after two weeks of therapy): improved
peak flow ([1]; severe asthma, baseline morning peak flow 5 l/sec, powder 6 mg once a day continuously, after a week): 9 L/s
peak flow ([1]; severe asthma, baseline morning peak flow less than 3 l/sec, aerosol 2 mg three times daily continuously, after a week): 6 L/s
